Results as given in patent publication US10160867B2, “Benzoxaborole-containing coating resistant to cellulose-supportable fungus” (THE PENN STATE RESEARCH FOUNDATION, priority 2015, dated 2018).
Converted amounts (≈) assume the structure as drawn.

Experiments:
Assay type in all cases: cell-based
Penicillium chrysogenum [1] = test: Fungus resistance test after painting over fungal growth (defacement rating); conditions: painted over fungal growth, +200 μg/mL in Valspar QuikHide paint
Text: (§1) In this series of experiments, fungal growth was allowed to cover a painted surface (surface containing 2 coats of the unaltered paint) to a defacement rating of 3-5, forming a ‘contaminated surface’. […] The paint application was extended approximately 1-2 cm beyond the edge of the disc onto the NSA medium. Each formulation used a separate brush to avoid cross contamination. The re-painted discs were placed back into the humid environment with elevated temperature to encourage fungal growth.
(§2) This test was used to evaluate the ability of paint films containing antifungal additives to prevent the re-emergence of fungal growth after painting over existing growth.
(§3) Olympic® Home interior flat latex paint (PPG Industries, Pittsburgh, Pa.) and Valspar® QuikHide White flat interior paint (Valspar Corporation, Minneapolis, Minn.) were used for the experiments in this study unless specified. Stock solutions of the antifungal additives of interest were prepared in reagent grade dimethyl sulfoxide (DMSO; Alfa Aesar, Ward Hill, Mass.). Additives were spiked (by adding appropriate amounts of the antifungal stock solutions) into the liquid paint at specified concentrations. Samples of additive-spiked paint were vigorously mixed with a vortex mixer for at least one minute to insure uniform dispersion of the additive in the paint. […] Studies that used other brands of paint followed the same protocol as described for those using the Olympic® Home interior flat latex paint.
(§4) Test surfaces were prepared in triplicate. In most cases, the tested conditions were repeated on a different date, again in triplicate. […] Two coats of paint were applied with a polyester brush to completely cover both faces of the filter paper disc, allowing at least four hours drying time between coats.
(§5) Nutrient-Salts Agar (NSA) media was prepared according to ASTM method G21-13 in 100×15 mm sterile polystyrene petri dishes (VWR® Radnor, Pa.) with a solidified agar layer from 3 to 6 mm (⅛ to ¼ in.) in depth. The agar was allowed to solidify for at least 24 hours before being used. The painted test filter paper discs were placed in the center of the agar plates in a biosafety hood while wearing clean nitrile gloves.
(§6) The paint coatings were evaluated against three representative fungi: Stachybotrys chartarum, Penicillium chrysogenum, and Alternaria alternata. […] Fungal isolates of Alternaria alternata and Penicillium chrysogenum were obtained from the Plant Pathology and Environmental Microbiology Department at Penn State University.
(§7) A spore suspension of each of these fungi was prepared by pouring a 20-mL portion of autoclaved deionized water containing 0.01% Tween® 20 onto a subculture of each fungal species. Spores were counted with the use of a hemocytometer (Hausser Scientific, Horsham, Pa.) under a microscope. Spore suspensions of Stachybotrys chartarum and Penicillium chrysogenum were diluted to 1×10^6 spores/mL with autoclaved deionized water. Spore suspensions of Alternaria alternata were used “as is” in the range of 200,000 to 400,000 spores/mL.
(§8) Painted test surfaces were inoculated with a spray bottle or with a cotton-tipped applicator. To inoculate the sample with a spray bottle, the spore suspension was sprayed twice on the painted test discs with a spray bottle that delivered approximately 0.14 g of fluid per spray. To inoculate the sample with a cotton-tipped applicator, an autoclaved cotton-tipped applicator was submerged in approximately 400 μL of the inoculum solution and applied evenly over the surface of the painted test surface twice.

Alternaria alternata [2] = test: as above; conditions: painted over fungal growth
Text: as §1, §2, §3, §4, §5, §6, §7, §8

Stachybotrys chartarum [3] = test: as above; conditions: painted over fungal growth
Text: as §1, §2, §3, §4, §5, §6, §7, §8

Aspergillus fumigatus = test: 3 day MIC, broth microdilution in 25% PDB; conditions: 72 h
Description: (§9) Stock solutions (concentrations of between 4,000 μg/mL to 10,000 μg/mL; stored at −18° C.) of the above antifungals were prepared in dimethyl sulfoxide (DMSO). The stock solutions were further diluted into sterile 25% potato dextrose broth (PDB) so that the diluted solutions could be used for the antifungal susceptibility studies. This way, a typical microdilution study would reach a final ratio of about 0.5-2% v/v of DMSO in 25% PDB.
(§10) Spore inocula were prepared in sterile distilled water with 0.1% Tween® 20 (a polysorbate surfactant), and a hemocytometer was used to determine the spore density. Typically, the spore inoculum was prepared fresh prior to each study, and the inoculum was appropriately diluted to a final concentration of 0.4-1×10^5 spores/mL or colony-forming unit (CFU)/mL in each study. The spore suspension can be stored in a refrigerator at 4° C. for up to one week.
The minimal inhibitory concentrations (MICs) for individual antifungal agents were determined by following a modified broth microdilution protocol CLSI (Clinical and Laboratory Standards Institute) M38-A2 [Clinical and Laboratory Standards Institute (2008) Reference method for broth dilution antifungal susceptibility testing of filamentous fungi—2nd edition: Approved Standard M38-A2, CLSI, Wayne, Pa.] where 25% potato dextrose broth (PDB) was used as the medium. The studies were performed in flat bottom, 96-well microtiter plates (Greiner Bio-One, Frickenhausen, Germany).
(§11) Plates sealed with clear polyester film (VWR, Radnor, Pa.) were incubated at a temperature of about 25° C. The progress of fungal growth was monitored at 48 hours and 72 hours.

Penicillium corylophilum = test: 3 day MIC, broth microdilution in 25% PDB; conditions: 72 h, 25% PDB, read-out: 3 day MIC
Description: as §9, §10
(§12) The studies were performed in flat bottom, 96-well microtiter plates (Greiner Bio-One, Frickenhausen, Germany).
as §11

Penicillium purpurogenum = test: 3 day MIC, broth microdilution in 25% PDB; conditions: 72 h; Penicillium purpurogenum; 25% PDB; read-out: 3 day MIC
Description: as §9, §10, §12, §11

Alternaria alternata [4] = test: 3 day MIC, broth microdilution in 25% PDB; conditions: 72 h, 25% PDB, read-out: 3 day MIC
Description: as §9, §10, §12, §11

[5] = tested on: Penicillium brevicompactum; test: 3 day MIC, broth microdilution in 25% PDB; conditions: 72 h, 25% PDB, read-out: 3 day MIC
Description: as §9, §10, §12, §11

Stachybotrys chartarum [6] = test: 3 day MIC, broth microdilution in 25% PDB; conditions: 72 h, 25% PDB, read-out: 3 day MIC
Description: as §9, §10, §12, §11

Penicillium chrysogenum [7] = test: 3 day MIC, broth microdilution in 25% PDB; conditions: 72 h, 25% PDB, read-out: 3 day MIC
Description: as §9, §10, §12, §11

[8] = +100 μg/mL in Olympic Home paint, 14 days
[9] = +100 μg/mL in Olympic Home paint, 21 days
[10] = +200 μg/mL in Olympic Home paint, 7 days
[11] = +200 μg/mL in Olympic Home paint, 14 days
[12] = +200 μg/mL in Olympic Home paint, 21 days
[13] = +100 μg/mL in Olympic Home paint, 7 days

Row | SMILES | Average defacement rating ± standard deviation (Penicillium chrysogenum [1]; 7 days) | Average defacement rating ± standard deviation (Penicillium chrysogenum [1]; 14 days) | Average defacement rating ± standard deviation (Penicillium chrysogenum [1]; 21 days) | Average defacement rating ± standard deviation (Alternaria alternata [2]; [8]) | Average defacement rating ± standard deviation (Alternaria alternata [2]; [9]) | Average defacement rating ± standard deviation (Alternaria alternata [2]; [10]) | Average defacement rating ± standard deviation (Alternaria alternata [2]; [11]) | Average defacement rating ± standard deviation (Alternaria alternata [2]; [12]) | Average defacement rating ± standard deviation (Stachybotrys chartarum [3]; [13]) | Average defacement rating ± standard deviation (Stachybotrys chartarum [3]; [8]) | Average defacement rating ± standard deviation (Stachybotrys chartarum [3]; [9]) | MIC (Aspergillus fumigatus) [mg/L] | MIC (Penicillium corylophilum) [mg/L] | MIC (Penicillium purpurogenum) [mg/L] | MIC (Alternaria alternata [4]) [mg/L] | MIC [5] [mg/L] | MIC (Stachybotrys chartarum [6]) [mg/L] | also measured
1 | OB1OCc2cc(F)ccc21 [Compound B9, 5-Fluoro-1,3-dihydro-2,1-benzoxaborol-1-ol] | 8.7 ± 1.0 (9) | 2.6 ± 3.1 (9) | 0.0 ± 0.0 (9) | 5.1 ± 2.1 (12) | 4.6 ± 2.2 (12) | 9.7 ± 0.6 (3) | 7.0 ± 4.4 (3) | 6.3 ± 5.5 (3) | 7.2 ± 2.6 (9) | 1.3 ± 3.0 (9) | 1.0 ± 2.8 (9) | 0.5 (≈ 3.29 µM) | 0.39 (≈ 2.57 µM) | 0.78 (≈ 5.13 µM) | 1.6 (≈ 10.5 µM) | 0.2 (≈ 1.32 µM) | 0.13 (≈ 0.856 µM) | Average defacement rating ± standard deviation (Stachybotrys chartarum [3]; +10 μg/mL in Olympic Home paint, 7 days): 0.3 ± 0.6 (3); Average defacement rating ± standard deviation (Stachybotrys chartarum [3]; +10 μg/mL in Olympic Home paint, 14 days): 0.0 ± 0.0 (3); Average defacement rating ± standard deviation (Stachybotrys chartarum [3]; +10 μg/mL in Olympic Home paint, 21 days): 0.0 ± 0.0 (3)
2 | CCCCCCCCn1sccc1=O [OIT, 2-Octyl-4-isothiazolin-3-one] | 3.6 ± 2.8 (9) | 3.0 ± 3.7 (9) | 2.3 ± 40.0 (9) | 0.0 ± 0.0 (6) | 0.0 ± 0.0 (6) |  |  |  | 4.6 ± 3.2 (9) | 3.6 ± 3.7 (9) | 3.0 ± 3.7 (9) |  | < 0.1 | < 0.1 | 200 (≈ 937 µM) | < 0.1 | 0.1 (≈ 0.469 µM) | Average defacement rating ± standard deviation (Alternaria alternata [2]; [13]): 0.3 ± 0.5 (6); MIC (Penicillium chrysogenum [7]): < 0.1 mg/L
3 | OB1OCc2cc(Cl)ccc21 [Compound B8, 5-chloro-1,3-dihydro-2,1-benzoxaborol-1-ol] | 2.3 ± 0.6 (9) | 0.0 ± 0.0 (9) | 0.0 ± 0.0 (9) | 3.4 ± 2.9 (9) | 3.0 ± 2.8 (9) | 9.3 ± 1.2 (3) | 7.3 ± 2.9 (3) | 3.0 ± 0.9 (3) | 7.0 ± 1.9 (9) | 6.4 ± 2.6 (9) |  | 0.5 (≈ 2.97 µM) | 0.78 (≈ 4.63 µM) | 1.56 (≈ 9.26 µM) | 3.1 (≈ 18.4 µM) | 0.4 (≈ 2.38 µM) | 0.13 (≈ 0.772 µM) | 
